Measurements from patent US20260256922A1, “PRODRUGS USEFUL FOR REDUCING ANTHRACYCLINE CARDIOTOXICITY” (WAKE FOREST UNIVERSITY HEALTH SCIENCES, priority 2022, published 2026).

Test system: caspase-3
Test: Caspase-3 cleavage immunoblot in H9C2 cells
Details: 24 h
Protocol: FIG. 6. […] H9C2 cells in culture were treated for 24 hr with c1, c2, DOX or vehicle (DMSO), then harvested into lysis buffer and immunoblotted for caspase-3. Data analyzed by ImageJ were used to assess the percent of the two bands present as the lower band.
We next evaluated apoptotic signaling through caspase-3 cleavage at 24 h to compare the experimental compounds.
To evaluate levels of caspase cleavage (using an antibody recognizing both cleaved and uncleaved, Cell Signaling, cat #9662), Nrf2 (antibody from Thermo Fisher, cat #PA5-27882), and HO-1 (antibody from Proteintech, cat #10701-1-AP), H9C2 cells were plated at a density of 450,000 per well in a 24-well plate, then treated 24 h later with 10 or 20 µM DOX and incubated another 24 h before harvesting. For some samples, 100 mM hydroxocobalamin (HO-Cbl) was added 5 min before drug treatment. Cells were harvested by removing media (and recovering any non-adherent cells by centrifugation for 5 min at 10,600×g, discarding the supernatant), and combining that with the 120 μL of lysis buffer added to each well. Lysis buffer [50 mM Tris-HCl at pH 8.0, with 100 mM NaCl, 100 µM diethylene triamine pentaacetic acid (DTPA), 20 mM β-glycerophosphate, 0.1% SDS, 0.5% Na Desoxycholate, and 0.5% Triton-X-100] was prepared by freshly adding protease and phosphatase inhibitors before use (1 mM PMSF, 10 μg/mL aprotinin, 1 mM Na3VO4, 10 mM NaF and 10 μg/mL leupeptin). Samples were further incubated on ice for 30 min, then centrifuged at high speed (20,800×g for 10 min) to remove cell debris, and supernatants were mixed with 5×SDS protein sample buffer for Western blot analysis following resolution of 40 μg per sample on 10% SDS-polyacrylamide gels. Protein concentrations of supernatants were determined using a BCA assay (Pierce). Antibodies were used at dilutions of 1:1000 (for HO-1 and caspase-3) or 1:3000 (for Nrf2).

**Q.** For `COc1cccc2c1C(=O)c1c(O)c3c(c(O)c1C2=O)C[C@@](O)(C(=O)CO)C[C@@H]3O[C@H]1C[C@H](NC(=S)OCc2ccc(B3OC(C)(C)C(C)(C)O3)cc2)[C@H](O)[C@H](C)O1` [c1], which “caspase-3 cleavage with H2S scavenger hydroxocobalamin” value (H9C2, 10 μM drug, 100 mM hydroxocobalamin added 5 min prior) is on record?
**A.** Its value is “much more cleavage of caspase-3 than in its absence”.

**Q.** And the caspase-3 cleavage (H9C2, 10 or 20 μM)?
**A.** Its caspase-3 cleavage is “neither c1 nor c2 at either 10 or 20 UM caused notable caspase-3 cleavage”.
